{
  "source": "paper PMC10895697",
  "about": "(JAC-Antimicrobial Resistance, 2024)",
  "origin": "cited, not measured here",
  "key": {"S. aureus in osteoblasts": {"test_system": "S. aureus in osteoblasts", "design": "method as in PMID 34423360", "conditions": "at 100x its MIC; cited from earlier work"}, "S. aureus": {"test_system": "S. aureus", "design": "method as in ref 11 (Chauvelot et al.)", "conditions": "ref 11 (Chauvelot et al.); cited from earlier work"}},
  "data": [
    {"smiles": "CN[C@H]1C(=O)N[C@@H]2Cc3ccc(cc3)Oc3cc4cc(c3O[C@@H]3O[C@H](C(=O)O)[C@@H](O)[C@H](O)[C@H]3NC(=O)CCCCCCCCC(C)C)Oc3ccc(cc3Cl)[C@@H](O)[C@@H]3NC(=O)[C@H](NC(=O)[C@@H]4NC(=O)[C@@H](NC2=O)c2cc(cc(O)c2Cl)Oc2cc1ccc2O)c1ccc(O)c(c1)-c1c(O[C@H]2O[C@H](CO)[C@@H](O)[C@H](O)[C@@H]2O)cc(O)cc1[C@@H](C(=O)NCCCN(C)C)NC3=O", "note": "[dalbavancin]", "values": [
      {"measurement": "peak of reduction of S. aureus in osteoblasts", "setting": "S. aureus in osteoblasts", "value": 51.6, "unit": "%"},
      {"measurement": "MIC", "setting": "S. aureus", "value": 0.125, "unit": "µg/mL"}
    ]}
  ]
}
